Experimental data as given in US5631259A, “Cycloalkltriols containing cyclic substituents, processes and intermediate products for their preparation and their use as antiviral and antiparasitic agents” (priority 1991, dated 1997).

Legend:
[1] = in vitro; settings: human, hela cells
[2] = system: Pneumocystis carinii; assay: Pneumocystis carinii pneumonia in dexamethasone-treated rats, bronchial lavage evaluated with Pneumocystis carinii test kit; format: in vivo, Spraque-Dawley rats; settings: Monday, Wednesday and Friday for two weeks
Description: Pneumocystis carinii--Description of the experiment and results
Spraque-Dawley rats, 200-220 g, were collected into groups of 10 animals and treated with dexamethasone 1.5 mg/ml; of loxacin 0.2 mg/rat via the drinking water in order to induce the outbreak of pneumonia caused by Pneumocystis carinii.
After 7 weeks, the dexamethasone treatment was stopped and the preparation treatment was started.
Treatment was carried out every Monday, Wednesday and Friday for two weeks as follows:
2. pentamidine 20 mg/kg i.m.
3. pentamidine 40 mg/kg i.m.
After the two treatment weeks, a bronchial lavage was performed on the animals under Nembutal anesthesia.
The bronchial suspensions obtained were worked up and evaluated using the Pneumocystis carinii test kit from Progen Biotechnik GmbH, Heidelberg, Germany.

For `Nc1ncnc2c1ncn2[C@@H]1C[C@H](O)[C@@H](O)[C@H]1O` (racemic) [Example 3.1.1, 9-[(1RS,2SR,3RS,4SR)-2,3,4-trihydroxycyclo-pent-1-yl]adenine], the MNTC [1] was > 400 µg/mL.

For `O=c1c(Cl)c(Cl)cnn1[C@@H]1C[C@H](O)[C@@H](O)[C@H]1O` (racemic) [Example 3.10.1, 4,5-dichloro-2-[(1RS,2SR,3RS,4SR)-2,3,4-trihydroxy-cyclopent-1-yl]pyridazin-3(2H)-one], the “Reduction (%)” value ([2]; 20 mg/kg oral) was 22.9%.

In the case of `CNc1ncnc2c1ncn2[C@H]1C[C@@H](O)[C@H](O)[C@@H]1O` (relative stereo) [Example 3.3, N^6-methyl-9-[(1RS,2SR,3RS,4SR)-trihydroxy-cyclopent-1-yl]adenine], the MNTC [1] is reported as > 400 µg/mL.

For `N=C(N)c1ccc(OCCCCCOc2ccc(C(=N)N)cc2)cc1` [pentamidine], the “Reduction (%)” value ([2]; 20 mg/kg i.m.) was 37.7% and the “Reduction (%)” value ([2]; 40 mg/kg i.m.) was 16.9%.
